Measurements from patent US20230159583A1, “COMPOUND FOR TREATING GOUT, PREPARATION METHOD THEREFOR, AND USE THEREOF” (Huazhong Pharmaceutical Co., Ltd., priority 2020, published 2023).
Read-outs that look alike come from different tables or passages of the source.

Tests used:
Assay type in all cases: in vivo
[1] = tested on: rat paw swelling induced by monosodium urate (MSU); experiment: rat paw swelling model induced by monosodium urate (MSU); conditions: for inhibition in vivo at 90 mg/kg / inhibition in vivo at 0.36 mg/kg / inhibition in vivo at 1.8 mg/kg / inhibition in vivo at 9 mg/kg / change in vivo at 90 mg/kg: Rattus norvegicus, po; for inhibition in vivo at 90 mg/kg / inhibition in vivo at 0.36 mg/kg / inhibition in vivo at 1.8 mg/kg / inhibition in vivo at 9 mg/kg: 1 h, read-out: Swelling inhibition rate; for inhibition in vivo at 0.36 mg/kg: dosage 0.36 mg/kg; for inhibition in vivo at 1.8 mg/kg: dosage 1.8 mg/kg; for inhibition in vivo at 9 mg/kg: dosage 9 mg/kg; for change in vivo at 90 mg/kg: read-out: Swelling degree; for Mean volume of paw after administration: 1 h after onset of inflammation (50 μL 2% MSU)
Source text: Gout is a disease unique to human, and gouty arthritis is an inflammatory reaction caused by the deposition of monosodium urate (MSU) in local joint tissues. Since purine metabolism pathways in some mammals such as mice and rabbits are different from those in humans, it is impossible to construct a gouty arthritis model by the method of interfering with purine metabolism disorders, so the most direct method for causing gouty arthritis is to directly inject MSU into the joint cavity of the model animal. The model is only used for simulating local joint inflammation of gout, is suitable for observation of local arthritis symptoms, is a common method for screening anti-inflammatory effects of gout drugs at present, and has the advantages of stability, easy operation and the like. (Reference: Li Na, Hua Long, and Yuan Hui. Research progress of gout animal models [J]. Medical theory and practice, 2016(24).
The anti-gout effect of the compound prepared in the above Example was detected by using a rat paw swelling model induced by monosodium urate (MSU), and the control sample was methylprednisolone.
Experimental method: MSU was used as an inflammatory agent, injected subcutaneously into the hind paws of rats to cause paw swelling, and then the volume of the paws was measured, and the swelling rates and swelling inhibition rates of the treatment group and the control group were compared. On the day of the experiment, the volume of right hind paw (ml) of each rat was measured firstly, and then after the onset of inflammation, the volume of right hind paw was measured so that the difference of volume of paw before and after inflammation was swelling degree, and the swelling inhibition rate of paw (swelling inhibition rate %=(C−T)/C*100%); C=swelling rate of the control group %, and T=swelling rate of the treatment group) was calculated. This method is one of the commonly used methods for screening anti-inflammatory effects of gout drugs, and the model is stable and easy to operate.
(2) One week before the subcutaneous injection of MSU into the feet and soles of the rats, the rats were given different doses of the test drugs, and the drugs were given by gavage once a day, for seven consecutive days. The circumference of the right hind paw was marked and measured before the last administration, and the average value of the two measurements was taken as the standard. 1 h after the last administration, animals in other groups were given 50 μL of 2% MSU in addition to the blank control group, and the paw circumference was measured 1 h after the onset of inflammation. […]

[2] = tested on: carrageenan-induced mouse paw swelling; experiment: carrageenan-induced mouse paw swelling model; conditions: for Circumference of the paw after administration: 180 min after onset of inflammation (0.5% carrageenan); for inhibition in vivo at 0.26 mg/kg / inhibition in vivo at 13 mg/kg / inhibition in vivo at 130 mg/kg / change in vivo at 130 mg/kg: Mus musculus, po, 3 h; for inhibition in vivo at 0.26 mg/kg: dosage 0.26 mg/kg; for inhibition in vivo at 0.26 mg/kg / inhibition in vivo at 13 mg/kg / inhibition in vivo at 130 mg/kg: read-out: Swelling inhibition rate; for inhibition in vivo at 13 mg/kg: dosage 13 mg/kg; for change in vivo at 130 mg/kg: read-out: Swelling degree
Method: The anti-inflammatory effects of the compounds prepared in the above Examples were detected using a carrageenan-induced mouse paw swelling model, and the control sample was methylprednisolone:
Carrageenan-induced mouse paw swelling model is a classical acute inflammation model commonly used for evaluating or screening anti-inflammatory effects of drugs. When carrageenan is injected into the paw of mice, a series of reactions similar to human acute inflammation such as local capillary dilatation, increased vascular permeability, exudation and edema can be caused, so the model can be widely used in the evaluation of new drugs.
Reference for experimental method: Yang Huan, Cheng Xiao, Wang Yuehua, Du Guanhua. Effects of esculin on the swelling of toes and inflammation induced by carrageenan in mice [J]. Chinese Journal of New Drugs, 2016(25):2322.
On the day of the experiment, the circumference of right hind paw (cm) of each mouse was measured firstly, and then, after the onset of inflammation, the circumference of right hind paw was measured so that the difference of the circumferences of the paws before and after inflammation was swelling degree, and the swelling inhibition rate of paw (swelling inhibition rate %=(C−T)/C*100%); C=swelling rate of the control group %, and T=swelling rate of the treatment group) was calculated.
(2) Gavage administration was performed once a day for seven consecutive days. The circumference of the right hind paw was marked and measured before the last administration, and the average value of the two measurements was taken as the standard. 30 min after the last administration, 20 μL/mice of 0.5% carrageenan was injected into the right hind ankle of the mice to induce inflammation, and the circumference of paw was measured 180 min after the onset of inflammation. […]

ICR mice = conditions: p.o.
Method: The experiment was designed according to the “Technical Guideline for Acute Toxicity Test of Chemical Drugs” issued by the State Food and Drug Administration in March 2005. The doses administered were 4 g/kg, 4.91 g/kg, 6.14 g/kg, 7.68 g/kg, 9.6 g/kg, 12 g/kg, and 15 g/kg (the dose could be adjusted according to the actual test results), 12 ICR mice per dose group. If the administration volume is greater than 0.5 ml, it is better to perform the drug administration in two or more times (Note: according to the national standard GB 15193.3-2014, if multiple drug administrations are required, the time interval should be 4 h to 6 h each time, and the patient should be fasted on the day before drug administration).

[3] = SD rats, 90 mg/kg by gavage once a day for seven days, 1 h after onset of inflammation
[4] = rat, MSU-induced paw swelling, dosage 90 mg/kg
[5] = SD rats, 90 mg/kg by gavage once a day for seven days
[6] = ICR mice, 130 mg/kg by gavage once a day for seven days, 180 min after onset of inflammation
[7] = ICR mice, 130 mg/kg by gavage once a day for seven days
[8] = mouse, carrageenan-induced paw swelling
[9] = mouse, carrageenan-induced paw swelling, dosage 130 mg/kg

| Compound | inhibition in vivo at 90 mg/kg [1, 3] | inhibition in vivo at 0.36 mg/kg ([1]; rat, MSU-induced paw swelling) | inhibition in vivo at 1.8 mg/kg ([1]; rat, MSU-induced paw swelling) | inhibition in vivo at 9 mg/kg ([1]; rat, MSU-induced paw swelling) | inhibition in vivo at 90 mg/kg [1, 4] | change in vivo at 90 mg/kg [1, 3] | Swelling value [1, 3] | Mean volume of paw after administration [1, 5] | Swelling value [2, 6] | Circumference of the paw after administration [2, 7] | inhibition in vivo at 0.26 mg/kg [2, 8] | inhibition in vivo at 13 mg/kg [2, 8] | inhibition in vivo at 130 mg/kg [2, 9] | change in vivo at 130 mg/kg [2, 6] | inhibition in vivo at 130 mg/kg [2, 6] | Mortality (ICR mice; 4 g/kg) | Mortality (ICR mice; 4.91 g/kg) | Mortality (ICR mice; 6.14 g/kg) | Mortality (ICR mice; 7.68 g/kg) | Mortality (ICR mice; 9.6 g/kg) | other results |
| --- | --- | --- | --- | --- | --- | --- | --- | --- | --- | --- | --- | --- | --- | --- | --- | --- | --- | --- | --- | --- | --- |
| C[C@H]1C[C@@H]2[C@H]([C@@H](O)C[C@@]3(C)[C@H]2CC[C@]3(O)/C(CO)=N/O)[C@@]2(C)C=CC(=NO)C=C12 [Example 1, (6S,8S, 9S, 10R, 11S, 13S, 14S, 17R)-11,17-dihydroxy-17-((E)-2-hydroxy-1-(hydroxyimino)ethyl)-6,10,13-trimethyl-6,7,8,9,10,11,12,13,14,15,16,17-dodecahydro-3H-cyclopentane[α]phenanthrene-3-one oxime] | 99.7% | 12.1% | 45.2% | 68.2% | 97.4% | 0.85% | 0.01 mL | 1.19 mL | 0.01 cm | 1.46 cm | 10.3% | 58.1% | 97.4% | 0.69% | 96.4% | 0/12 | 0/12 | 0/12 | 0/12 | 0/12 | Mortality (ICR mice; 12 g/kg): 0/12; Mortality (ICR mice; 15 g/kg): 0/12 |
| CC(=O)OC/C(=N\O)[C@@]1(O)CC[C@H]2[C@@H]3C[C@H](C)C4=CC(=NO)C=C[C@]4(C)[C@H]3[C@@H](O)C[C@@]21C [Example 2, (2E)-2-((6S,8S,9S,10R,11S,13S,14S,17R)-11,17-dihydroxy-3-(hydroxyimino)-6,10,13-trimethyl-6,7,8,9,10,11,12,13,14,15,16,17-dodecahydro-3H-cyclopentane[α]phenanthrene-17-yl)-2-(hydroxyimino)ethyl acetate] | 99% | 15.1% | 32.1% | 52.1% | 98.2% | 3.23% | 0.04 mL | 1.28 mL | 0.01 cm | 1.43 cm | 15.1% | 63.1% | 96.2% | 0.7% | 96.4% | 0/12 | 0/12 | 0/12 | 0/12 | 1/12 | Mortality (ICR mice; 12 g/kg): 4/12; Mortality (ICR mice; 15 g/kg): 6/12 |
| C[C@]12C=CC(=NO)C=C1CC[C@@H]1[C@@H]2[C@@H](O)C[C@@]2(C)[C@H]1CC[C@]2(O)/C(CO)=N/O [Example 3, (8S,9S,10R,11S,13S,14S,17R)-11,17-dihydroxy-17-((E)-2-hydroxy (hydroxyimino)ethyl)-10,13-dimethyl-6,7,8,9,10,11,12,13,14,15,16,17-dodecahydro-3H-cyclopentane[α]phenanthrene-3-one oxime] | 80.5% | 10.2% | 25.2% | 32.1% | 82.1% | 64.2% | 0.77 mL | 1.97 mL | 0.05 cm | 1.53 cm | 9.12% | 42.3% | 78.2% | 3.38% | 82.5% | 0/12 | 0/12 | 0/12 | 0/12 | 0/12 | Mortality (ICR mice; 12 g/kg): 0/12; Mortality (ICR mice; 15 g/kg): 1/12 |
| CCON=C1C=C[C@@]2(C)C(=C1)[C@@H](C)C[C@@H]1[C@@H]2[C@@H](O)C[C@@]2(C)[C@H]1CC[C@]2(O)/C(CO)=N/OCC [Example 9, (6S,8S,9S,10R,11S,13S,14S,17R,E)-17-((E)-1-(ethoxysimino)-2-hydroxyethyl)-11,17-dihydroxy-6,10,13-trimethyl-6,7,8,9,10,11,12,13,14,15,16,17-dodecahydro-3H-cyclopentane[α]phenanthrene-3-ketoO-ethyl oxime] | – | – | – | – | – | – | – | – | – | – | – | – | – | – | – | 0/12 | 0/12 | 0/12 | 0/12 | 0/12 | Mortality (ICR mice; 12 g/kg): 0/12; Mortality (ICR mice; 15 g/kg): 2/12 |
| C[C@H]1C[C@@H]2[C@H]([C@@H](O)C[C@@]3(C)[C@H]2CC[C@]3(O)C(=O)CO)[C@@]2(C)C=CC(=O)C=C12 [Methylprednisolone, methylprednisolone, reference compound] | 53.8% | 12.3% | 17.6% | 43.5% | 55.4% | 152% | 1.87 mL | 3.1 mL | 0.15 cm | 1.63 cm | 12.1% | 31.4% | 51.2% | 10.1% | 47.6% | – | – | – | – | – | – |
